Source: patent US12440496B2, “Natriuretic peptide receptor a agonists useful for the treatment of cardiometabolic diseases, kidney disease and diabetes” (Merck Sharp & Dohme LLC, priority 2019, dated 2025)
Counter-ions that a name gives are not always drawn.

Biological target: T1, hNPRA (Homo sapiens, UniProt P16066)
T1 construct: expressed in transfected cells
T1 sequence (P16066 33-1061): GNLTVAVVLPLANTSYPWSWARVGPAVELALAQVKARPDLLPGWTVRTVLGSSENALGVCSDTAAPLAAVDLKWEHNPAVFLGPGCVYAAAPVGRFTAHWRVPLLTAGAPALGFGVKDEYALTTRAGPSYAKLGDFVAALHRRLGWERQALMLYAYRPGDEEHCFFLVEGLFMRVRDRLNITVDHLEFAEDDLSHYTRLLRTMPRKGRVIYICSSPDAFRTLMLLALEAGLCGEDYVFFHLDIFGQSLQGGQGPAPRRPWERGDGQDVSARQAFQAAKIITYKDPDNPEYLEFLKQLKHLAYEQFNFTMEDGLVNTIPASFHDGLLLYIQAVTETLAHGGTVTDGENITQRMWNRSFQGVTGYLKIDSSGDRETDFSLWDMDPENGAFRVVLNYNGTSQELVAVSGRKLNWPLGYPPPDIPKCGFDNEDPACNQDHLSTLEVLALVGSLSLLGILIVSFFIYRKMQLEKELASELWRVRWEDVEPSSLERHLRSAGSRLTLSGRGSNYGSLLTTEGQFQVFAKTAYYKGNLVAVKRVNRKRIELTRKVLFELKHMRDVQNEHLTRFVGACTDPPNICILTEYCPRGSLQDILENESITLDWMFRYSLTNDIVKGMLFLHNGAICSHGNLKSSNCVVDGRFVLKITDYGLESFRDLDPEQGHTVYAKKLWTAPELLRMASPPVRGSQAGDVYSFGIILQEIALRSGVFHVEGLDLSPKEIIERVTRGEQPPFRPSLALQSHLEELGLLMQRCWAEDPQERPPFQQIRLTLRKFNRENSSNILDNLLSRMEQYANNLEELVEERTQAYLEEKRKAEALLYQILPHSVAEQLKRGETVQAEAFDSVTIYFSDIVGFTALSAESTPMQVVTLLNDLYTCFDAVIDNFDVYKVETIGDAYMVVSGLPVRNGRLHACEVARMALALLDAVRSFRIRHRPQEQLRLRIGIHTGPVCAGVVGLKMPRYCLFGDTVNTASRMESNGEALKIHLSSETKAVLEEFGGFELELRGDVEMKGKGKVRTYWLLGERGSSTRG
Assay: NPRA Functional Cell Assay (cGMP HTRF, NPRA HEK JumpIn stable cells)
Type: cell-based
Conditions: cGMP production, 1 hour at 37° C., 10-point dose response
From the text: NPRA Functional Cell Assay
Assay Buffer components HEPES and Opti-MEM® I Reduced-Serum with Glutamine (no phenol red) were from Gibco/Invitrogen (Thermo Fisher Scientific, Waltham, MA USA). 3-Isobutyl-1-methylxanthine (IBMX) and 4-(3-Butoxy-4-methoxybenzyl) imidazolidin-2-one (RO20) were obtained from Sigma-Aldrich (St. Louis, MO, USA). DPBS (Dulbecco's phosphate-buffered saline) without Ca2+ and Mg2+ was purchased from GE Healthcare Bio-Sciences (Pittsburgh, PA, USA). 384 well white Optiplates were from Perkin Elmer (Atlantic Highlands, NJ, USA). Human ANP (Atrial Natriuretic Peptide) (1-28) was purchased from Sigma-Aldrich (Catalog #A1663) and rat ANP (1-28) from Bachem (Torrance, CA, USA) (Catalog #H2100). Human-BNP (Human-Brain Natriuretic Peptide) (1-32 AA) was purchased from American Peptide Company (Sunnyvale, CA, USA) (product No. 14-1-90). cGMP kits were purchased from Cisbio. The assay ready frozen (ARF) Human/rat/dog NPRA HEK JumpIn Stable frozen cells (low passage number 5-11) were prepared in-house.
Test compounds were titrated in DMSO in a 10-point dose response in a separate step followed by a 100-fold dilution into the reaction. Positive response for each assay was determined using 10 nM rat-ANP peptide (rat cells) or 50 nM h-ANP peptide (human and dog cells).
Cells were thawed, washed with DPBS and resuspended in assay buffer (Opti-MEM+Glutamine, phenol red free media, 10 mM HEPES, 100 uM IBMX and 100 uM RO20) that was warmed to 37° C. Cells were then transferred to microplates via a Microplate Combi dispenser at a density of 1500, 400 and 1200 cells/well for human, rat and dog cells respectively, followed by acoustic transfer (Echo) of compound.
(§1) Compounds and cells were incubated at 37° C. with 5% CO2 for 1 hour, after which the cells were lysed and cGMP was captured using a CisBio cGMP HTRF assay kit. The TRF signal was measured with an Envision plate reader (emission set to 615 and 665 nm) after 1 hour incubation at ambient temperature. The TRF signal was converted to [cGMP] through the use of a cGMP calibration curve on each microplate. EC50's were generated from the resulting dose response curves by use of a 4 parameter logistic algorithm.
Assay Buffer components HEPES and Opti-MEM® I Reduced-Serum with Glutamine (no phenol red) were from Gibco/Invitrogen. 3-Isobutyl-1-methylxanthine (IBMX) and 4-(3-Butoxy-4-methoxybenzyl) imidazolidin-2-one (RO20) were obtained from Sigma. DPBS (Dulbecco's phosphate-buffered saline) without Ca2+ and Mg2+ was purchased from GE Healthcare Bio-Sciences (Pittsburgh, PA, USA). 384 well white Optiplates were from Perkin Elmer (Atlantic Highlands, NJ, USA). Human ANP (1-28) was purchased from Sigma (A1663) and rat ANP (1-28) from Bachem (H2100). Human-BNP (1-32 AA) was purchased from American Peptide Company (Sunnyvale, CA, USA) (product No. 14-1-90). cGMP kits were purchased from Cisbio (Bedford, MA, USA). The assay ready frozen (ARF) Human/rat/dog NPRA HEK JumpIn Stable frozen cells (low passage number 5-11) were prepared in-house.
as §1, with “Envision®” for “Envision”, “reader (Perkin Elmer)” for “reader”
hNPRA EC50 (nM) were determined for the compounds of Example 1 through Example 273 and are reported in the Experimental section of this application.

SMILES | EC50 [nM]
CC(C)(C)[C@H]1CCc2nc3sc(C(=O)N[C@H](CCN4CCC(O)CC4)c4ccc(-c5ccc(OCCF)nc5)cc4)nc3cc2C1 (racemic) [Example 128, rac-(7S)-7-tert-butyl-N-[rac-(1R)-1-[4-[6-(2-fluoroethoxy)-3-pyridyl]phenyl]-3-(4-hydroxypiperidin-1-ium-1-yl)propyl]-5,6,7,8-tetrahydrothiazolo[5,4-b] quinoline-2-carboxamide; 2,2,2-trifluoroacetate] | 1180
CC(C)(C)[C@H]1CCc2nc3sc(C(=O)N[C@H](CCN4CCC(O)CC4)c4cccc(N5CC6(CCNCC6)OC5=O)c4)nc3cc2C1 (racemic) [Example 116, rac-(7S)-7-tert-butyl-N-[rac-(1R)-3-(4-hydroxy-1-piperidyl)-1-[3-(2-oxo-1-oxa-3-aza-8-azoniaspiro [4.5]decan-3-yl)phenyl]propyl]-5,6,7,8-tetrahydrothiazolo[5,4-b] quinoline-2-carboxamide; 2,2,2-trifluoroacetate] | 622
CC(C)(C)[C@H]1CCc2nc3sc(C(=O)N[C@H](CCN4CCC(O)CC4)c4cccc(C(=O)N5CCC6NCCC65)c4)nc3cc2C1 (mixture of isomers) [Example 146, rac-(7S)-7-tert-butyl-N-[rac-(1R)-1-[3-(2,3,3a,5,6,6a-hexahydro-1H-pyrrolo[3,2-b]pyrrole-4-carbonyl)phenyl]-3-(4-hydroxy-1-piperidyl)propyl]-5,6,7,8-tetrahydrothiazolo[5,4-b]quinoline-2-carboxamide] | 607
Cn1nccc1-c1ccc([C@@H](CCN2CCC(O)CC2)NC(=O)c2nc3cc4c(nc3s2)CC[C@H](C(C)(C)C)C4)cc1 (racemic) [Example 81, rac-(7S)-7-tert-butyl-N-[rac-(1R)-3-(4-hydroxypiperidin-1-ium-1-yl)-1-[4-(2-methylpyrazol-3-yl)phenyl]propyl]-5,6,7,8-tetrahydrothiazolo[5,4-b]quinoline-2-carboxamide; formate] | 914
CC(C)(C)[C@H]1CCc2nc3sc(C(=O)N[C@H](CCN[C@H]4COC[C@@H]4O)c4ccc(-c5ccc(=O)[nH]c5)cc4)cc3cc2C1 (racemic) [Example 69, [rac-(3S,4R)-4-hydroxytetrahydrofuran-3-yl]-[rac-(3R)-3-[4-(6-oxo-1H-pyridin-3-yl)phenyl]-3-[[rac-(6S)-6-tert-butyl-5,6,7,8-tetrahydrothieno[2,3-b]quinoline-2-carbonyl]amino]propyl] ammonium;formate] | 1830
CC(C)(C)[C@H]1CCc2nc3sc(C(=O)N[C@H](CCN4CCC(O)CC4)c4ccc(-c5cn[nH]c5)cc4)nc3cc2C1 (racemic) [Example 80, rac-(7S)-7-tert-butyl-N-[rac-(1R)-3-(4-hydroxypiperidin-1-ium-1-yl)-1-[4-(1H-pyrazol-4-yl)phenyl]propyl]-5,6,7,8-tetrahydrothiazolo[5,4-b]quinoline-2-carboxamide; formate] | 753
CC(C)(C)[C@H]1CCc2nc3sc(C(=O)N[C@H](CCN4CCC(O)CC4)c4cccc(C(=O)N5CC(N6CCOCC6)C5)c4)nc3cc2C1 (racemic) [Example 157, rac-(7S)-7-tert-butyl-N-[rac-(1R)-3-(4-hydroxy-1-piperidyl)-1-[3-(3-morpholinoazetidine-1-carbonyl)phenyl]propyl]-5,6,7,8-tetrahydrothiazolo[5,4-b]quinoline-2-carboxamide] | 876
CN(C)C1CN(C(=O)c2cccc([C@@H](CCN3CCC(O)CC3)NC(=O)c3nc4cc5c(nc4s3)CC[C@H](C(C)(C)C)C5)c2)C1 (racemic) [Example 148, rac-(7S)-7-tert-butyl-N-[rac-(1R)-1-[3-[3-(dimethylamino)azetidine-1-carbonyl]phenyl]-3-(4-hydroxy-1-piperidyl)propyl]-5,6,7,8-tetrahydrothiazolo[5,4-b]quinoline-2-carboxamide] | 656

Next, values leading:

EC50 [nM] | SMILES
1250 | CC(C)(C)[C@H]1CCc2nc3sc(C(=O)N[C@H](CCN4CCC(O)CC4)c4ccc(-c5nc[nH]c5C#N)cc4)nc3cc2C1 (racemic) [Example 178, rac-(7S)-7-tert-butyl-N-[rac-(1R)-1-[4-(5-cyano-1H-imidazol-4-yl)phenyl]-3-(4-hydroxy-1-piperidyl)propyl]-5,6,7,8-tetrahydrothiazolo[5,4-b]quinoline-2-carboxamide]
1920 | CC(C)(C)[C@H]1CCc2nc3sc(C(=O)N[C@H](CCN4CCC(O)CC4)c4ccc(-c5cncs5)cc4)nc3cc2C1 (racemic) [Example 185, rac-(7S)-7-tert-butyl-N-[rac-(1R)-3-(4-hydroxypiperidin-1-ium-1-yl)-1-(4-thiazol-5-ylphenyl)propyl]-5,6,7,8-tetrahydrothiazolo[5,4-b]quinoline-2-carboxamide; 2,2,2-trifluoroacetate]
1820 | CC(C)(C)[C@H]1CCc2nc3sc(C(=O)N[C@H](CCN4CCC(CO)C4)c4ccccc4)cc3cc2C1 (stereo partly drawn) [Example 259, (6S)-6-tert-butyl-N-{(1R)-3-[3-(hydroxymethyl)pyrrolidin-1-yl]-1-phenylpropyl}-5,6,7,8-tetrahydrothieno[2,3-b]quinoline-2-carboxamide]
655 | CC1([C@H]2CCc3nc4sc(C(=O)N[C@H](CCN5CCC(O)CC5)c5ccc(-c6cn[nH]c6)cc5)nc4cc3C2)CC1 [Example 267, (S)-N-((R)-1-(4-(1H-pyrazol-4-yl)phenyl)-3-(4-hydroxypiperidin-1-yl)propyl)-7-(1-methylcyclopropyl)-5,6,7,8-tetrahydrothiazolo[5,4-b]quinoline-2-carboxamide]
674 | CN(CCO)CC[C@@H](NC(=O)c1nc2cc3c(nc2s1)CC[C@H](C(C)(C)C)C3)c1ccc(NS(=O)(=O)N(C)C)nc1 (racemic) [Example 206, 2-hydroxyethyl-methyl-[rac-(3R)-3-[6-(dimethylsulfamoylamino)-3-pyridyl]-3-[[rac-(7S)-7-tert-butyl-5,6,7,8-tetrahydrothiazolo[5,4-b]quinoline-2-carbonyl]amino]propyl]ammonium; 2,2,2-trifluoroacetate]
